IC50 data for 13 compounds are collected here from BindingDB's records for doi:10.1021/jm00010a025 (Merck Sharp & Dohme Research Laboratories, 1995).

A short description of assay [1]: Binding activity against 5-hydroxytryptamine 3 receptor from rat cortex homogenate using [3H]-Q-ICS 205-930 as radioligand.
Assay [2] in a line: Binding activity against 5-hydroxytryptamine 2C receptor from pig cortex membrane using [3H]mesulergine as radioligand.
Assay [3] can be described thus: Binding activity against 5-hydroxytryptamine 3 receptor from rat cortex homogenate using [3H]-Q-ICS 205-930 as radioligand. The source holds these as a separate data set.
Assay [4] in a line: Binding activity against 5-hydroxytryptamine 3 receptor from rat cortex homogenate using [3H]-Q-ICS 205-930 as radioligand; NA Not Available.

Bounds are passed on as bounds.

In turn, `CN(C)CCc1c[nH]c2ccc(Cc3nnnn3C)cc12` gave an IC50 in assay [1] of 25.1 nM.

Regarding `CCn1nnnc1Cc1ccc2[nH]cc(CCN(C)C)c2c1`, the IC50 in assay [2] was more than 10000 nM; in assay [1], 25.1 nM.

Consider `CN(C)CCc1c[nH]c2ccc(Cn3ccnc3)cc12`, for which the IC50 in assay [2] came out at 3980 nM; in assay [3], 31.6 nM.

With `CN(C)CCc1c[nH]c2ccc(Cc3ncnn3C)cc12`, the IC50 in assay [2] is more than 10000 nM; in assay [3], 100 nM.

For the compound `CN(C)CCc1c[nH]c2ccc(Cc3nnn[nH]3)cc12`, the IC50 in assay [2] is more than 10000 nM; in assay [1] it was 3980 nM.

Consider `CN(C)CCc1c[nH]c2ccc(Cn3cnnn3)cc12`, for which the values for the IC50 in assay [2] and in assay [1] were 2000 nM and 39.8 nM, respectively.

Take `CN(C)CCc1c[nH]c2ccc(Cn3ncnn3)cc12`: the IC50 was determined as 1000 nM in assay [2] and 39.8 nM in assay [1].

In assay [1], `CCn1nnc(Cc2ccc3[nH]cc(CCN(C)C)c3c2)n1` registered an IC50 of 126 nM.

On to `Cc1nccn1-c1ccc2[nH]cc(CCN(C)C)c2c1`, for which the 50% inhibitory concentration (IC50) in assay [1] worked out at 7.94 nM.

The compound `CN(C)CCc1c[nH]c2ccc(Cc3nncn3C)cc12` gave an IC50 in assay [1] of 25.1 nM.

In assay [4], `CN(C)CCc1c[nH]c2ccc(Cn3ccnn3)cc12` had a 50% inhibitory concentration (IC50) of 50.1 nM.

Consider `Cc1nccn1Cc1ccc2[nH]cc(CCN(C)C)c2c1`, for which the values for the IC50 in assay [2] and in assay [1] were 3160 nM and 63.1 nM, respectively.

On to `CN(C)CCc1c[nH]c2ccc(Cc3nnn(C)n3)cc12`, for which the IC50 in assay [1] worked out at 79.4 nM.

As usually defined, the IC50 is the point on the concentration scale where inhibition reaches its midpoint. Lower therefore signals higher potency.
